Article PMC11091888, “Evaluation of Fusobacterium nucleatum Enoyl-ACP Reductase (FabK) as a Narrow-Spectrum Drug Target” (ACS Infectious Diseases, 2024)
Converted amounts (≈) assume the structure as drawn. “And” between values parts separate entries of the source, which are not always exact repeats. Equal values may be shown once. Read-outs that look alike come from different tables or passages of the source.

Experiments:
[1] = tested on: F. nucleatum 23726 complementation strains; experiment: MIC against F. nucleatum 23726 carrying FabK alanine-132 or threonine-132 under the wild-type fabK promoter; type: cell-based; conditions: Fusobacterium nucleatum
Procedure: The transformation of F. nucleatum 23726 was performed via electroporation as previously described,[41] except that Columbia broth was used. (i) Antisense vector: F. nucleatum gene silencing vector, pHFK2, was developed by inserting the ATc inducible paired-termini antisense sequences from the clostridial vector pMSPT into pCWU6, a F. nucleatum vector.[56] pCWU6 was amplified by PCR (CloneAmp polymerase) and recombined with the BamHI and KpnI fragments of pMSPT containing the Tet promoter and paired-termini sequences.[26] Antisense nucleotides targeting either 50 bp upstream and downstream of the fabK start codon (FabKAS1) or 25 bp upstream and 75 bp downstream (FabKAS2) were cloned into SphI and XhoI restriction sites of pHFK2. (ii) Complementation vectors: these were generated by PCR amplifying the fabK promoter and gene and introducing KpnI and HindIII restriction sites at 5′ and 3′ ends, respectively. Purified PCR amplicons were inserted into the KpnI and HindIII sites of pCWU6. (iii) Overexpression vectors: the corresponding gene, fabK or fabX, was amplified via PCR, introducing HindIII or SacI restriction sites to the 5′ end, respectively. BamHI restriction sites were introduced to the 3′ end of both. Purified PCR amplicons were inserted into the respective restriction sites of pHFK2. (iv) Allelic exchange vector: vector, pCWU8-FabK, was generated using a previously described protocol,[41],[56] whereby 1-kb regions upstream and downstream of fabK were cloned into the suicide vector pCWU8 using a Gibson Assembly Cloning Kit (New England Biolabs). The recombinant vector was transformed into strain F. nucleatum 23726ΔgalK, and successful integrants were collected that were resistant to thiamphenicol (5 μg/mL). […]
Compounds were twofold serially diluted (100–0.2 μg/mL) across a 96-well plate in 100 μL of media used for the specific organism (Table S4). […] Plates were incubated at 37 °C for up to 48 h, and MICs were read by visual inspection.

[2] = tested on: F. nucleatum 23726 overexpression strains; experiment: MIC against F. nucleatum 23726 transformed with empty vector, fabK or fabX under ATc-inducible promoter; type: cell-based, Fusobacterium nucleatum; conditions: for MIC: Fusobacterium nucleatum
Procedure: The transformation of F. nucleatum 23726 was performed via electroporation as previously described,[41] except that Columbia broth was used. (i) Antisense vector: F. nucleatum gene silencing vector, pHFK2, was developed by inserting the ATc inducible paired-termini antisense sequences from the clostridial vector pMSPT into pCWU6, a F. nucleatum vector.[56] pCWU6 was amplified by PCR (CloneAmp polymerase) and recombined with the BamHI and KpnI fragments of pMSPT containing the Tet promoter and paired-termini sequences.[26] Antisense nucleotides targeting either 50 bp upstream and downstream of the fabK start codon (FabKAS1) or 25 bp upstream and 75 bp downstream (FabKAS2) were cloned into SphI and XhoI restriction sites of pHFK2. (ii) Complementation vectors: these were generated by PCR amplifying the fabK promoter and gene and introducing KpnI and HindIII restriction sites at 5′ and 3′ ends, respectively. Purified PCR amplicons were inserted into the KpnI and HindIII sites of pCWU6. (iii) Overexpression vectors: the corresponding gene, fabK or fabX, was amplified via PCR, introducing HindIII or SacI restriction sites to the 5′ end, respectively. BamHI restriction sites were introduced to the 3′ end of both. Purified PCR amplicons were inserted into the respective restriction sites of pHFK2. (iv) Allelic exchange vector: vector, pCWU8-FabK, was generated using a previously described protocol,[41],[56] whereby 1-kb regions upstream and downstream of fabK were cloned into the suicide vector pCWU8 using a Gibson Assembly Cloning Kit (New England Biolabs). The recombinant vector was transformed into strain F. nucleatum 23726ΔgalK, and successful integrants were collected that were resistant to thiamphenicol (5 μg/mL). Since the suicide vector expresses GalK, which is toxic in the presence of 2-deoxy-D-galactose (2-DG), the compound 2-DG (0.25% w/v) was added to counter-select for mutants that underwent a second homologous recombination. Ten resulting colonies were then tested for deletion of fabK via PCR, using primers in Table S7. The experiment was independently performed twice for a total of 20 colonies screened for fabK deletion. All experiments were done anaerobically at 37 °C in tryptic soy broth supplemented with 1% w/v peptone and 0.25% w/v autoclaved L-cysteine hydrochloride (TSPC) or TSPC agar with thiamphenicol or 2-DG.
(§1) Compounds were twofold serially diluted (100–0.2 μg/mL) across a 96-well plate in 100 μL of media used for the specific organism (Table S4). For anaerobes, plates were incubated anaerobically at 37 °C for 1 h and then inoculated with approximately 10^5 to 10^6 CFU/well. Plates were incubated at 37 °C for up to 48 h, and MICs were read by visual inspection.

[3] = tested on: Bifidobacterium breve; experiment: MIC, digestive tract panel; type: cell-based; conditions: Type I FAS
Procedure: as §1

[4] = tested on: Streptococcus pyogenes; experiment: MIC, digestive tract panel; type: cell-based; conditions: ENR FabK
Procedure: as §1

[5] = tested on: F. vincentii 49256; experiment: MIC, digestive tract panel; type: cell-based; conditions: ENR FabK
Procedure: as §1

[6] = tested on: F. necrophorum 25286; experiment: MIC, digestive tract panel; type: cell-based; conditions: Fusobacterium necrophorum, ENR FabK
Procedure: as §1

[7] = tested on: Streptococcus sp. CMW7705B; experiment: MIC, digestive tract panel; type: cell-based; conditions: ENR FabK
Procedure: as §1

[8] = tested on: Actinomyces F0386; experiment: MIC, digestive tract panel; type: cell-based; conditions: Type I FAS
Procedure: as §1

[9] = tested on: Streptococcus mitis; experiment: MIC, digestive tract panel; type: cell-based; conditions: ENR FabK
Procedure: as §1

[10] = tested on: Prevotella denticola; experiment: MIC, digestive tract panel; type: cell-based; conditions: ENR FabI
Procedure: as §1

[11] = tested on: F. nucleatum 25586; experiment: MIC, digestive tract panel; type: cell-based; conditions: Fusobacterium nucleatum, ENR FabK
Procedure: as §1

[12] = tested on: Bacteroides ovatus; experiment: MIC, digestive tract panel; type: cell-based; conditions: ENR FabI/FabK
Procedure: as §1

[13] = tested on: Streptococcus salivarius; experiment: MIC, digestive tract panel; type: cell-based; conditions: ENR FabK
Procedure: as §1

[14] = tested on: P. gingivalis F0569; experiment: MIC, digestive tract panel; type: cell-based; conditions: Porphyromonas gingivalis
Procedure: as §1

[15] = tested on: F. nucleatum 23726; experiment: MIC against F. nucleatum 23726; type: cell-based, Fusobacterium nucleatum; conditions: Fusobacterium nucleatum, 23726, F. nucleatum 23726 wild-type; three biological replicates; read-out: MIC Fn 23726
Procedure: as §1

[16] = tested on: Streptococci; experiment: MIC, all tested Streptococci; type: cell-based; conditions: text summary of Table 4; read-out: MICs against all tested Streptococci
Procedure: as §1

[17] = tested on: S. pyogenes 19615; experiment: Growth in FAS-II inhibitor with or without exogenous fatty acids; type: cell-based, Streptococcus pyogenes; conditions: fatty acid mixture of Table S2
Procedure: (§2) To plates containing twofold serial dilutions of compounds, exponential phase cultures were added to a final OD600nm of 0.1. Plates containing F. nucleatum in Columbia broth were incubated at 37 °C inside of a Tecan Infinite 200 Pro, which was inside an anaerobic chamber; growth kinetics for Streptococcus spp. in brain heart infusion broth were done aerobically in the same Tecan instrument.

[18] = tested on: S. salivarius HM-121; experiment: as above; type: cell-based, Streptococcus salivarius; conditions: fatty acid mixture of Table S2
Procedure: as §2

[19] = tested on: E. faecalis FA2–2ΔfabK; experiment: MIC against E. faecalis FA2-2 fabI+ (ΔfabK, possesses only FabI); type: cell-based, Enterococcus faecalis
Procedure: as §1

[20] = Cytotoxicity against Vero cells (resazurin viability); type: cell-based; conditions: monkey, Vero epithelial cells, maximum tested concentration 100 μg/mL
Procedure: This was done as described[36] using colorectal carcinoma HCT116 and Vero epithelial cells cultured at 37 °C in 5% CO2 in Dulbecco’s modified Eagle’s medium (DMEM) with 4.5 g/L glucose and L-glutamine. The medium was supplemented with 10% v/v FetalGro (Rocky Mountain Biologicals). Approximately 25,000/well were aliquoted into black 96-well plates (Greiner Bio-One) and incubated overnight, before being resuspended in DMEM supplemented with 20% Gibco KnockOut Serum Replacement (Thermo Fisher Scientific). Compounds (100–1.6 μg/mL) were then added to the cells and incubated for 24 h at 37 °C and 5% CO2. Cell viability was analyzed using resazurin as described.[36]

Structure (SMILES): CS(=O)(=O)c1ccc2nc(NC(=O)NCc3nc(-c4ccc(Br)cc4)c[nH]3)sc2c1 [Compound 681, 1-((4-(4-bromophenyl)-1H-imidazole-2-yl)methyl)-3-(6-(methylsulfonyl)benzo[d]thiazol-2-yl)urea]
- MIC ([1]; read-out: MIC, empty vector control): 0.6 µg/mL
- MIC ([1]; read-out: MIC, threonine-132 FabK mutant): 2.5 to 5 µg/mL
- MIC ([1]; read-out: MIC, wild-type FabK (alanine-132)): 1.3 µg/mL
- MIC, FabK overexpression, induced ([2]; F. nucleatum 23726 pTET-fabK, 62.5 ng/mL ATc): >100 µg/mL
- MIC ([2]; read-out: MIC, FabK overexpression, induced): > 100 µg/mL
- MIC ([2]; read-out: MIC, FabK overexpression, uninduced): 0.8 µg/mL
- MIC ([2]; read-out: MIC, FabX overexpression, induced): 3.1 µg/mL
- MIC ([2]; read-out: MIC, FabX overexpression, uninduced): 0.8 µg/mL
- MIC ([2]; read-out: MIC, empty vector, induced): 0.4 µg/mL
- MIC ([2]; read-out: MIC, empty vector, uninduced): 0.8 µg/mL
- MIC [3]: >100 µg/mL
- MIC ([3]; read-out: MIC): > 100 µg/mL
- MIC [4]: < 1.6 µg/mL
- MIC [5]: 1.6 µg/mL (≈ 3.16 µM)
- MIC [6]: 6.3 to 12.5 µg/mL (≈ 12.4 to 24.7 µM)
- MIC [7]: < 1.6 µg/mL
- MIC [8]: > 100 µg/mL
- MIC [9]: < 1.6 µg/mL
- MIC [10]: > 100 µg/mL
- MIC [11]: 0.8 µg/mL (≈ 1.58 µM)
- MIC [12]: >100 µg/mL
- MIC ([12]; read-out: MIC): > 100 µg/mL
- MIC [13]: < 1.6 µg/mL
- MIC [14]: > 100 µg/mL
- MIC [15]: 0.4 µg/mL (≈ 0.79 µM)
- MIC [16]: < 1.6 µg/mL
- Increase in biomass (OD600nm) in the presence of inhibitor and exogenous fatty acids [17]: 4–5 fold
- Increase in biomass (OD600nm) in the presence of inhibitor and exogenous fatty acids [18]: twofold
- MIC Ef fabI+ ([19]; E. faecalis FA2-2 ΔfabK, possesses only FabI): 100 µg/mL and >100 µg/mL
- MIC ([19]; Enterococcus faecalis, read-out: MIC Ef fabI+, E. faecalis FA2-2 ΔfabK, possesses only FabI): > 100 µg/mL
- IC50 at 24 h [20]: > 100 µg/mL
